This passage reports carcinogen call results from PubChem BioAssay AID1259411 (Chemical Carcinogenesis Research Information System (CCRIS), 2018).

Structures are written as SMILES. Active and inactive are the calls of the source. No rule for the calls is given here.

This series has as its system rodent carcinogenicity bioassays, tumor incidence. The series can be described thus: CCRIS carcinogenicity studies. The method in brief: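 NCI-built, expert-reviewed records of carcinogenicity and related test outcomes (mutagenicity, tumor promotion/inhibition) compiled from published and report sources, historical span 1985-2011, not updated.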

With `O=S(=O)(O)c1ccc(N=Nc2c(O)ccc3cc(S(=O)(=O)O)ccc23)cc1`, the carcinogen call by setting is: (Species: MOUSE, Strain/Sex: B6C3F1/FEMALE, Route: ORAL, Dose: 0, 12500, 25000 PPM IN DIET, Dose: 0, 12500, 25000 PPM IN DIET) “inactive; negative”; (Species: MOUSE, Strain/Sex: B6C3F1/MALE, Route: ORAL, Dose: 0, 12500, 25000 PPM IN DIET, Dose: 0, 12500, 25000 PPM IN DIET) “inactive; negative”; (Species: MOUSE, Strain/Sex: SWISS-WEBSTER/FEMALE, Route: DERMAL, Dose: 0, 1% IN 0.1 ML DISTILLED WATER 1/WK FOR 19.5 MO (STUDY DURATION: 19.5 MO)) “inactive; negative”; (Species: MOUSE, Strain/Sex: SWISS-WEBSTER/MALE, Route: DERMAL, Dose: 0, 1% IN 0.1 ML DISTILLED WATER 1/WK FOR 19.5 MO (STUDY DURATION: 19.5 MO)) “inactive; negative”; (Species: RAT, Strain/Sex: F344/FEMALE, Route: ORAL, Dose: 0, 12500, 25000 PPM IN DIET, Dose: 0, 12500, 25000 PPM IN DIET) “inactive; negative”; (Species: RAT, Strain/Sex: F344/MALE, Route: ORAL, Dose: 0, 12500, 25000 PPM IN DIET, Dose: 0, 12500, 25000 PPM IN DIET) “inactive; negative”.

Turning to `c1ccc2c3c4c(cccc4cc2c1)CC3`, the carcinogen call (Species: MOUSE, Strain/Sex: BLU:HA/FEMALE, Route: INTRAPERITONEAL, Dose: 0, 175 UG/KG/D ON DAYS 1 (1/7 TOTAL DOSE), 8 (2/7 TOTAL DOSE), AND 15 (4/7 TOTAL DOSE) AFTER BIRTH (STUDY DURATION: 9 MO) is “inactive; negative”; the carcinogen call (Species: MOUSE, Strain/Sex: BLU:HA/MALE, Route: INTRAPERITONEAL, Dose: 0, 175 UG/KG/D ON DAYS 1 (1/7 TOTAL DOSE), 8 (2/7 TOTAL DOSE), AND 15 (4/7 TOTAL DOSE) AFTER BIRTH (STUDY DURATION: 9 MO) was “inactive; negative”; the carcinogen call (Species: MOUSE, Strain/Sex: CD-1/FEMALE, Route: INTRAPERITONEAL, Dose: 0, 175, 437.5, 875 UG/KG/D ON DAYS 1 (1/7 TOTAL DOSE), 8 (2/7 TOTAL DOSE), AND 15 (4/7 TOTAL DOSE) AFTER BIRTH (STUDY DU, Dose: 0, 175, 437.5, 875 UG/KG/D ON DAYS 1 (1/7 TOTAL DOSE), 8 (2/7 TOTAL DOSE), AND 15 (4/7 TOTAL DOSE) AFTER BIRTH (STUDY DU) was “inactive; negative”; the carcinogen call (Species: MOUSE, Strain/Sex: CD-1/MALE, Route: INTRAPERITONEAL, Dose: 0, 175, 437.5, 875 UG/KG/D ON DAYS 1 (1/7 TOTAL DOSE), 8 (2/7 TOTAL DOSE), AND 15 (4/7 TOTAL DOSE) AFTER BIRTH (STUDY DU, Dose: 0, 175, 437.5, 875 UG/KG/D ON DAYS 1 (1/7 TOTAL DOSE), 8 (2/7 TOTAL DOSE), AND 15 (4/7 TOTAL DOSE) AFTER BIRTH (STUDY DU, Tumor Site: Type of Lesion: LUNG: ADENOMA OR ADENOCARCINOMA) is “active; positive”.

With `OCc1ccn2c1[C@H](O)CC2`, the carcinogen call is “active; positive” (Species: MOUSE, Strain/Sex: SWISS/FEMALE, Route: DERMAL/SUBCUTANEOUS, Dose: 0, 20 MG/KG IN 0.2 ML ACETONE TO SHAVED MID-BACK REGION AND 0, 20 MG/KG IN 0.1 ML PHOSPHATE BUFFER TO INTERSCAPULAR REGI, Dose: 0, 20 MG/KG IN 0.2 ML ACETONE TO SHAVED MID-BACK REGION AND 0, 20 MG/KG IN 0.1 ML PHOSPHATE BUFFER TO INTERSCAPULAR REGI, Tumor Site: Type of Lesion: SKIN: BASAL CELL CARCINOMA); “active; positive” (Species: MOUSE, Strain/Sex: SWISS/FEMALE, Route: DERMAL, Dose: 0, 20 MG/KG IN 0.2 ML ACETONE 1/WK FOR 4 WK AFTER 6 MO ANIMALS WITHOUT TUMORS TREATED AGAIN 1/WK FOR 2 WK (STUDY DURATIO, Tumor Site: Type of Lesion: SKIN: BASAL CELL CARCINOMA); “active; positive” (Species: MOUSE, Strain/Sex: SWISS/FEMALE, Route: SUBCUTANEOUS, Dose: 0, 20 MG/KG IN 0.1 ML PHOSPHATE BUFFER 1/WK FOR 4 WK AFTER 6 MO ANIMALS WITHOUT TUMORS TREATED AGAIN 1/WK FOR 2 WK (STUD, Tumor Site: Type of Lesion: SKIN: BASAL CELL CARCINOMA).

For `C/C=C/c1ccc(O)c(OC)c1`, the carcinogen call by setting is: (Species: Mouse, Strain/Sex: B6C3F1 /Female (50/Group), Route: Oral, Dose: 0, 75, 150, 300 mg/kg in corn oil, by gavage, 5 d/wk for 2 yr, Dose: 0, 75, 150, 300 mg/kg in corn oil, by gavage, 5 d/wk for 2 yr) “inactive; negative. (authors describe as equivocal evidence based on incidence of histiocy”; (Species: Mouse, Strain/Sex: B6C3F1 /Male (50/Group), Route: Oral, Dose: 0, 75, 150, 300 mg/kg in corn oil, by gavage, 5 d/wk for 2 yr, Dose: 0, 75, 150, 300 mg/kg in corn oil, by gavage, 5 d/wk for 2 yr, Tumor Site: Type of Lesion: Liver: hepatocellular adenoma (24/50, 35/50, 37/50, 33/50), hepatocellular carcinoma (8/50, 18/50, 19/50, 18/50), hepato, Tumor Site: Type of Lesion: Liver: hepatocellular adenoma (24/50, 35/50, 37/50, 33/50), hepatocellular carcinoma (8/50, 18/50, 19/50, 18/50), hepato) “active; positive. (authors describe as clear evidence)”; (Species: Rat, Strain/Sex: F344/N / Female (50/Group), Route: Oral, Dose: 0, 75, 150, 300 mg/kg in corn oil, by gavage, 5 d/wk for 2 yr, Dose: 0, 75, 150, 300 mg/kg in corn oil, by gavage, 5 d/wk for 2 yr) “inactive; negative”; (Species: Rat, Strain/Sex: F344/N / Male (50/Group), Route: Oral, Dose: 0, 75, 150, 300 mg/kg in corn oil, by gavage, 5 d/wk for 2 yr, Dose: 0, 75, 150, 300 mg/kg in corn oil, by gavage, 5 d/wk for 2 yr) “inactive; negative. (authors describe as equivocal evidence based on incidence of thymoma,”.

On to `CC(COc1ccccc1)N(CCCl)Cc1ccccc1` (configuration not stated), for which the carcinogen call runs as follows: (Species: MOUSE, Strain/Sex: B6C3F1/FEMALE, Route: INTRAPERITONEAL, Dose: 0, 12.5, 25 MG/KG 3/WK FOR 50 OR 52 WK, Dose: 0, 12.5, 25 MG/KG 3/WK FOR 50 OR 52 WK, Tumor Site: Type of Lesion: PERITONEAL CAVITY: SARCOMA) “active; positive”; (Species: MOUSE, Strain/Sex: B6C3F1/MALE, Route: INTRAPERITONEAL, Dose: 0, 12.5, 25 MG/KG 3/WK FOR 50 OR 52 WK, Dose: 0, 12.5, 25 MG/KG 3/WK FOR 50 OR 52 WK, Tumor Site: Type of Lesion: PERITONEAL CAVITY: SARCOMA) “active; positive”; (Species: MOUSE, Strain/Sex: STRAIN-A/MALE,FEMALE, Route: INTRAPERITONEAL, Dose: 40, 100, 200 MG/KG IN TRICAPRYLIN, Dose: 40, 100, 200 MG/KG IN TRICAPRYLIN, Tumor Site: Type of Lesion: LUNG: ADENOMA) “active; positive”; (Species: RAT, Strain/Sex: SPRAGUE-DAWLEY/FEMALE, Route: INTRAPERITONEAL, Dose: 0, 5, 10 MG/KG 3/WK FOR 52 WKS, Dose: 0, 5, 10 MG/KG 3/WK FOR 52 WKS, Tumor Site: Type of Lesion: PERITONEAL CAVITY: SARCOMA) “active; positive”; (Species: RAT, Strain/Sex: SPRAGUE-DAWLEY/MALE, Route: INTRAPERITONEAL, Dose: 0, 5, 10 MG/KG 3/WK FOR 52 WK, Dose: 0, 5, 10 MG/KG 3/WK FOR 52 WK, Tumor Site: Type of Lesion: PERITONEAL CAVITY: SARCOMA) “active; positive”.
